Relative viability data for 1 cell line are collected here from the supplement of paper PMC10307832.

Assay in all cases: relative viability (nuclei count vs DMSO), 5 days (fraction); higher = more cells survive
Compound in the test “QS11 + OSI-027”: C1CC2=C(C1)C=C(C=C2)OC3=NC(=C4C(=N3)N(C=N4)CC5=CC=C(C=C5)C6=CC=CC=C6)N[C@@H](CC7=CC=CC=C7)CO [QS11] + COc1cccc2cc(-c3nc([C@H]4CC[C@H](C(=O)O)CC4)n4ncnc(N)c34)[nH]c12 [OSI-027] (partner 0.5 µM)
A digest of the protocol:
(§1)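 Cells from lung cancer lines were seeded into 1536-well plates and, one day later, dosed by pin tool. Treatments were either a single drug or a fixed dose of an anchor drug with five library-drug doses (not always all listed) in √10 steps. After 5 days, nuclei were stained in a one-step fixation (final 0.05% Triton X-100, 1% formaldehyde, 1 ug/ml Hoechst) and counted on 4× images, and relative viability is the treated-to-vehicle nuclei ratio, as the median of duplicate plates.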

Compound in the test “AZ628 + Lapatinib”: CC1=C(C=C(C=C1)NC(=O)C2=CC(=CC=C2)C(C)(C)C#N)NC3=CC4=C(C=C3)N=CN(C4=O)C [AZ628] + CS(=O)(=O)CCNCc1ccc(-c2ccc3ncnc(Nc4ccc(OCc5cccc(F)c5)c(Cl)c4)c3c2)o1 [Lapatinib] (partner 2 µM)
A digest of the protocol: as §1

Compound in the test “AZ628 + Luminespib”: CC1=C(C=C(C=C1)NC(=O)C2=CC(=CC=C2)C(C)(C)C#N)NC3=CC4=C(C=C3)N=CN(C4=O)C [AZ628] + CCNC(=O)c1noc(-c2cc(C(C)C)c(O)cc2O)c1-c1ccc(CN2CCOCC2)cc1 [Luminespib] (partner 0.01 µM)
A digest of the protocol: as §1

Compound in the test “QS11 + Pemetrexed”: C1CC2=C(C1)C=C(C=C2)OC3=NC(=C4C(=N3)N(C=N4)CC5=CC=C(C=C5)C6=CC=CC=C6)N[C@@H](CC7=CC=CC=C7)CO [QS11] + Nc1nc2[nH]cc(CCc3ccc(C(=O)N[C@@H](CCC(=O)O)C(=O)O)cc3)c2c(=O)[nH]1 [Pemetrexed] (partner 0.2 µM)
The essentials:
as §1

Turning to LCLC-97TM1, the relative viability came to 0.405 with QS11 + OSI-027 (first compound 0.08 µM); 0.698 with QS11 + OSI-027 (first compound 0.253 µM); 0.565 with QS11 + OSI-027 (first compound 2.53 µM); 0.588 with QS11 + OSI-027 (first compound 8 µM); 1.01 with AZ628 + Lapatinib (first compound 0.08 µM); 1.01 with AZ628 + Lapatinib (first compound 0.253 µM). Further, the relative viability in the test with AZ628 + Lapatinib (first compound 0.8 µM) came out at 1.37; in the test with AZ628 + Lapatinib (first compound 2.53 µM) it was 1.2; with AZ628 + Lapatinib (first compound 8 µM), 0.152; with AZ628 + Luminespib (first compound 0.08 µM) it was 0.804; in the test with AZ628 + Luminespib (first compound 0.253 µM), 0.659; with AZ628 + Luminespib (first compound 0.8 µM) it was 0.642. For the same cell line, the relative viability came to 0.464 with AZ628 + Luminespib (first compound 2.53 µM); 0.287 with AZ628 + Luminespib (first compound 8 µM); 0.167 with QS11 + Pemetrexed (first compound 0.253 µM); 0.182 with QS11 + Pemetrexed (first compound 2.53 µM); 0.202 with QS11 + Pemetrexed (first compound 8 µM).
